Source: the NIST ThermoML archive (doi:10.1016/j.tca.2010.03.027)
Numbers after ± are expanded uncertainties.

Experiments:
[1] = xn = mol fraction of the nth substance listed; conditions: 293 K, 101 kPa, Crystal, X-ray diffraction
[2] = Crystal; for Normal melting temperature: DTA

mass density ([1]; x1 = 0.15) [kg/m3]	mass density ([1]; x1 = 0.3) [kg/m3]	mass density ([1]; x1 = 0.45) [kg/m3]	mass density ([1]; x1 = 0.6) [kg/m3]	mass density ([1]; x1 = 0.75) [kg/m3]	mass density ([1]; x1 = 0.9) [kg/m3]	mass density ([1]; x1 = 1) [kg/m3]	Normal melting temperature [2] [°C]	mass density ([2]; 293 K, 101.3 kPa, X-ray diffraction) [kg/m3]	Compound
3536 ± 2	3836 ± 2	4112 ± 2	4371 ± 2	4628 ± 2	4861 ± 2	5060 ± 2	–	–	[Br-].[Br-].[Ca+2] [calcium bromide] + [Ca+2].[Cl-].[Cl-]
–	–	–	–	–	–	–	770 ± 1	–	[Ca+2].[Cl-].[Cl-] [calcium chloride]
–	–	–	–	–	–	–	738 ± 1	5060 ± 2	[Br-].[Br-].[Ca+2] [calcium bromide]
